One block for each compound: values may come before it. The source made the active and inactive calls. The rule behind the calls is not given here.
Columns and labels:
[1] = molecular target: Tyrosyl-DNA phosphodiesterase 1 (Homo sapiens) (UniProt Q9NUW8); experiment: Inhibition of TDP1 (unknown origin) using (5'-FAM-AGGATCTAAAAGACTT-BHQ-3') as substrate at 100 uM by fluorescence assay
[2] = test system: HCT-116; experiment: Cytotoxicity against human HCT-116 cells assessed as cell growth inhibition incubated for 72 hrs by CCK-8 assay; format: functional
[3] = test system: HCT-116; experiment: Cytotoxicity against human HCT-116 cells assessed as cell killing at 0.5 uM incubated for 72 hrs by CCK-8 assay relative to control; format: functional
[4] = test system: HCT-116; experiment: Radiosensitizing activity in human HCT-116 cells assessed as cell killing at 0.5 uM co-treated with IR-2 Gy incubated for 72 hrs by CCK-8 assay (reference value: 37%); format: functional
[5] = test system: HCT-116; experiment: Cytotoxicity against human HCT-116 cells at 0.5 uM incubated for 72 hrs by CCK-8 assay; format: functional, cell-based
[6] = test system: HCT-116; experiment: Radiosensitization activity in human HCT-116 cells assessed as cell killing at 0.25 uM incubated for 24 hrs in presence of IR-5 Gy by crystal violet staining based colony formation assay relative to control; format: functional
[7] = test system: HCT-116; experiment: Induction of ROS generation in human HCT-116 cells assessed as fold increase in ROS level at 5 uM in presence of IR 4 Gy by DCFH-DA staining based ELISA; format: functional
[8] = test system: HCT-116; experiment: Induction of cell cycle arrest in human HCT-116 cells assessed as accumulation of cells at G0/G1 phase at 5 uM incubated for 24 hrs in presence of IR-4 Gy by PI staining based flow cytometric analysis (reference value: 56.89%); format: functional
[9] = test system: HCT-116; experiment: Induction of apoptosis in human HCT-116 cells assessed as early apoptotic cells at 5 uM incubated for 24 hrs in presence of IR-4 Gy by AnnexinV-FITC/PI staining based flow cytometry (reference value: 4.88%); format: functional
[10] = test system: HCT-116; experiment: Induction of ROS generation in human HCT-116 cells assessed as fold increase in ROS level at 10 uM in presence of IR 4 Gy by DCFH-DA staining based ELISA; format: functional
[11] = test system: HCT-116; experiment: Radiosensitization activity in human HCT-116 cells incubated for 24 hrs in presence of IR-2 Gy by crystal violet staining based colony formation assay; format: functional, cell-based; conditions: dose 0.1-0.5 µM
[12] = test system: HCT-116; experiment: Induction of ROS generation in human HCT-116 cells at 5 to 10 uM in presence of IR 4 Gy by DCFH-DA staining based ELISA; format: functional, cell-based; conditions: dose 5-10 µM
[13] = test system: HCT-116; experiment: Radiosensitization activity in human HCT-116 cells assessed as combination index at 0.1 to 0.5 uM incubated for 24 hrs in presence of IR-2 Gy by crystal violet staining based colony formation assay; format: functional; conditions: dose 0.1-0.5 µM
[14] = test system: HCT-116; experiment: Radiosensitizing activity in human HCT-116 cells assessed as reduction in cell viability at 0.5 uM co-treated with IR-2 Gy incubated for 72 hrs by CCK-8 assay (reference value: 37%); format: functional
[15] = test system: HCT-116; experiment: Induction of cell cycle arrest in human HCT-116 cells assessed as accumulation of cells at G2/M phase at 5 uM incubated for 24 hrs by PI staining based flow cytometric analysis (reference value: 23.42 %); format: functional
[16] = test system: HCT-116; experiment: Cytotoxicity against human HCT-116 cells assessed as cell survival at 0.5 uM incubated for 72 hrs by CCK-8 assay relative to control; format: functional; conditions: read-out: Activity
[17] = test system: HCT-116; experiment: Induction of apoptosis in human HCT-116 cells assessed as early apoptotic cells at 5 uM incubated for 24 hrs by AnnexinV-FITC/PI staining based flow cytometry (reference value: 1.41%); format: functional
[18] = test system: HCT-116; experiment: Induction of apoptosis in human HCT-116 cells assessed as viable cells at 5 uM incubated for 24 hrs by AnnexinV-FITC/PI staining based flow cytometry (reference value: 98.05%); format: functional; conditions: read-out: Activity
[19] = test system: HCT-116; experiment: Induction of apoptosis in human HCT-116 cells assessed as viable cells at 5 uM incubated for 24 hrs in presence of IR-4 Gy by AnnexinV-FITC/PI staining based flow cytometry (reference value: 94.08%); format: functional; conditions: read-out: Activity
[20] = test system: HCT-116; experiment: Inhibition of colony formation in human HCT-116 cells at 0.25 uM incubated for 24 hrs by crystal violet staining based colony formation assay relative to control; format: functional
[21] = test system: HCT-116; experiment: Induction of apoptosis in human HCT-116 cells assessed as late apoptotic cells at 5 uM incubated for 24 hrs by AnnexinV-FITC/PI staining based flow cytometry (reference value: 0.41%); format: functional
[22] = test system: HCT-116; experiment: Induction of DNA damage in human HCT-116 cells assessed as increase in gamma-H2AX fluorescence intensity at 10 uM incubated for 6 hrs in presence of IR 4 Gy by DAPI staining based immunofluorescence microscopic analysis; format: functional, cell-based
[23] = test system: HCT-116; experiment: Induction of apoptosis in human HCT-116 cells assessed as late apoptotic cells at 5 uM incubated for 24 hrs in presence of IR-4 Gy by AnnexinV-FITC/PI staining based flow cytometry (reference value: 0.93%); format: functional
[24] = test system: HCT-116; experiment: Induction of cell cycle arrest in human HCT-116 cells assessed as accumulation of cells at G0/G1 phase at 5 uM incubated for 24 hrs by PI staining based flow cytometric analysis (reference value: 58.75%); format: functional
[25] = test system: HCT-116; experiment: Radiosensitization activity in human HCT-116 cells assessed as combination index at 0.25 uM incubated for 24 hrs in presence of IR-5 Gy by crystal violet staining based colony formation assay; format: functional
[26] = test system: HCT-116; experiment: Induction of cell cycle arrest in human HCT-116 cells assessed as accumulation of cells at S phase at 5 uM incubated for 24 hrs by PI staining based flow cytometric analysis (reference value: 17.14%); format: functional
[27] = test system: HCT-116; experiment: Induction of cell cycle arrest in human HCT-116 cells assessed as accumulation of cells at S phase at 5 uM incubated for 24 hrs in presence of IR-4 Gy by PI staining based flow cytometric analysis (reference value: 13.71%); format: functional
[28] = test system: HCT-116; experiment: Induction of cell cycle arrest in human HCT-116 cells assessed as accumulation of cells at G2/M phase at 5 uM incubated for 24 hrs in presence of IR-4 Gy by PI staining based flow cytometric analysis (reference value: 29.00 %); format: functional
[29] = test system: HCT-116; experiment: Induction of ROS generation in human HCT-116 cells at 5 to 10 uM by DCFH-DA staining based ELISA; format: functional, cell-based; conditions: dose 5-10 µM
[30] = test system: HCT-116; experiment: Induction of DNA damage in human HCT-116 cells assessed as increase in gamma-H2AX fluorescence intensity at 10 uM incubated for 6 hrs by DAPI staining based immunofluorescence microscopic analysis; format: functional, cell-based

Sequence of Tyrosyl-DNA phosphodiesterase 1 (Homo sapiens) (Q9NUW8 whole entry): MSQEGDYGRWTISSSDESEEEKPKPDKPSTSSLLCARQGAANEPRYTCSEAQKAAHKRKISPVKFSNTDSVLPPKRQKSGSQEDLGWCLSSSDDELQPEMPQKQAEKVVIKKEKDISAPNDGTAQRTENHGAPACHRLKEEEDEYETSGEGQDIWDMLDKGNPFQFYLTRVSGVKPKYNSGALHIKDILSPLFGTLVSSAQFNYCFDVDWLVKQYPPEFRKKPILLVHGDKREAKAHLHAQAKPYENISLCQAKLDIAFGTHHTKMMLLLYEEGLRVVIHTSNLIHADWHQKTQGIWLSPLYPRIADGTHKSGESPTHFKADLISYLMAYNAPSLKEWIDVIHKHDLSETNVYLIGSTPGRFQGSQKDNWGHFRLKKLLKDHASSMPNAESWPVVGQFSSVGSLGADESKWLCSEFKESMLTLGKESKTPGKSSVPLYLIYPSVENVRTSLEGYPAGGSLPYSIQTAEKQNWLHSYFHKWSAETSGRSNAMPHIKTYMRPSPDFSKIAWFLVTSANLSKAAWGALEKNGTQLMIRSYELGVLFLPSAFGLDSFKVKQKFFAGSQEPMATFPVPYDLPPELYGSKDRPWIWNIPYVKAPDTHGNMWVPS

inhibition [1]: inactive
Compound: COc1ccc(Cn2c(=O)c3cc(OC)c(OC)cc3c3ccc4c(c32)OCO4)cc1
GI50 [2]: > 100 µM

inhibition [1]: inactive
Compound: COc1cc2c(=O)n(CCN3CCCC3)c3c4c(ccc3c2cc1OC)OCO4
GI50 [2]: 0.56 µM
Activity [3]: ~100%

inhibition [1]: inactive
Compound: COc1cc2c(=O)n(CCn3cccc3)c3c4c(ccc3c2cc1OC)OCO4
GI50 [2]: 17.3 µM

inhibition [1]: inactive
Compound: COc1cc2c(=O)n(CCN3CCCCC3)c3c4c(ccc3c2cc1OC)OCO4
Activity [4]: 55%
GI50 [2]: 0.81 µM
Activity [5]: inactive

inhibition [1]: inactive
Compound: COc1cc2c(=O)n(CCc3cccs3)c3c4c(ccc3c2cc1OC)OCO4
GI50 [2]: 44.8 µM

inhibition [1]: inactive
Compound: COc1cc2c(=O)n(CCN3CCN(C)CC3)c3c4c(ccc3c2cc1OC)OCO4
GI50 [2]: 9.95 µM

inhibition [1]: inactive
Compound: COc1cc2c(=O)n(CCN(C)C)c3c4c(ccc3c2cc1OC)OCO4
GI50 [2]: 0.55 µM
Activity [3]: ~100%

inhibition [1]: inactive
Compound: COc1cc2c(=O)n(CCN3CCOCC3)c3c4c(ccc3c2cc1OC)OCO4
GI50 [2]: 3.22 µM

inhibition [1]: inactive
Compound: COc1cc2c(=O)n(CCn3cccn3)c3c4c(ccc3c2cc1OC)OCO4
GI50 [2]: > 100 µM

The remaining lines, values behind:

Compound: COc1cc2c(OCCN3CCCC3)nc3c4c(ccc3c2cc1OC)OCO4
inhibition [1]: inactive
GI50 [2]: 0.31 µM
Activity [3]: ~100%

Compound: COc1cc2c(=O)n(Cc3ccc(C(=O)O)cc3)c3c4c(ccc3c2cc1OC)OCO4
inhibition [1]: inactive
GI50 [2]: > 100 µM

Compound: COc1cc2c(NCCN(C)C)nc3c4c(ccc3c2cc1OC)OCO4
inhibition [1]: inactive
GI50 [2]: 0.47 µM
Activity [3]: ~100%

Compound: COc1cc2c(Nc3ccc(C(=O)N(C)C)cc3)nc3c4c(ccc3c2cc1OC)OCO4
inhibition [1]: inactive
GI50 [2]: 7.79 µM

Compound: COc1cc2c(=O)n(CCNC(=O)OC(C)(C)C)c3c4c(ccc3c2cc1OC)OCO4
inhibition [1]: inactive
GI50 [2]: > 100 µM

Compound: COc1cc2c(OCCN3CCN(C)CC3)nc3c4c(ccc3c2cc1OC)OCO4
inhibition [1]: inactive
GI50 [2]: 7.88 µM

Compound: COc1cc2c(NCCN3CCN(C)CC3)nc3c4c(ccc3c2cc1OC)OCO4
inhibition [1]: inactive
GI50 [2]: 0.85 µM

Compound: COc1cc2c(Nc3ccc(C(=O)N4CCN(C)CC4)cc3)nc3c4c(ccc3c2cc1OC)OCO4
inhibition [1]: inactive
GI50 [2]: 3.32 µM

Compound: COc1cc2c(N3CCN(c4ncccn4)CC3)nc3c4c(ccc3c2cc1OC)OCO4
Activity [6]: ~99%
fold change (FC) [7]: 1.4
Activity [8]: 23.41%
Activity [9]: 7.21%
fold change (FC) [10]: 1.8
Activity [11]: Dose-dependent-effect
Activity [12]: Active
CI [13]: 0.4
Activity [14]: <20%
Activity [15]: 37.67%
viability at 0.5 µM [16]: 64%
inhibition [1]: inactive
Activity [17]: 1.75%
viability at 5 µM [18]: 95.2%
viability at 5 µM [19]: 89.4%
inhibition at 0.25 µM [20]: 30%
Activity [21]: 2.1%
Activity [22]: Active
Activity [23]: 3.11%
Activity [24]: 36.95%
CI [25]: 0.29
Activity [26]: 23.9%
GI50 [2]: 6.08 µM
Activity [27]: 22.09%
Activity [28]: 43.16%
Activity [29]: inactive
Activity [30]: Active

Compound: COc1cc2c(Nc3ccc(C(=O)N4CCOCC4)cc3)nc3c4c(ccc3c2cc1OC)OCO4
inhibition [1]: inactive
GI50 [2]: 5.26 µM

Compound: COc1cc2c(NCCN3CCCC3)nc3c4c(ccc3c2cc1OC)OCO4
Activity [14]: Active
viability at 0.5 µM [16]: ~80%
inhibition [1]: inactive
GI50 [2]: 2.11 µM

Compound: COc1cc2c(Nc3ccc(C(=O)N4CCCC4)cc3)nc3c4c(ccc3c2cc1OC)OCO4
inhibition [1]: inactive
GI50 [2]: 1.46 µM

Compound: COc1cc2c(=O)n(CC(=O)N3CCOCC3)c3c4c(ccc3c2cc1OC)OCO4
inhibition [1]: inactive
GI50 [2]: 54.2 µM

Compound: COc1cc2c(OCCN(C)C)nc3c4c(ccc3c2cc1OC)OCO4
inhibition [1]: inactive
GI50 [2]: 0.32 µM
Activity [3]: ~100%

Compound: COc1cc2c(Nc3ccc(C(=O)N4CCC(OC)CC4)cc3)nc3c4c(ccc3c2cc1OC)OCO4
inhibition [1]: inactive
GI50 [2]: 2.76 µM

Compound: COc1cc2c(=O)n(Cc3ccc(OC(F)(F)F)cc3)c3c4c(ccc3c2cc1OC)OCO4
inhibition [1]: inactive
GI50 [2]: 4.79 µM

Source: ChEMBL document CHEMBL6182855, “Design and synthesis of phenanthridinone and phenanthridine derivatives and their radiosensitizing activity” (2025)
